From article PMC10224335, “Purification, Identification, and Inhibitory Mechanisms of a Novel ACE Inhibitory Peptide from Torreya grandis” (Nutrients, 2023)
Read-outs that look alike come from different tables or passages of the source. Peptide text beside a SMILES is read from it.

Assays:
[1] = tested on: pepsin and trypsin; experiment: Stability against simulated gastrointestinal digestion (pepsin, trypsin); assay type: in vitro ADME
Description: The simulated gastrointestinal digestion method was applied according to Li et al., with some modifications. In brief, pH 2.0 was adjusted for the VW-7 solution (ultrapure water, c = 0.4 mg/mL). The peptide solution was mixed with pepsin (2%, w/w) for 2 h at 37 °C. The pH was changed to 7.0 after the process, and half of the liquid was withdrawn. The other half was then given trypsin (2%, w/w) and digested at 37 °C for 2 h. Finally, the reaction was terminated by a boiling water bath, and the ACE inhibition rate of the two-step reaction products was measured.
RP-HPLC was used to analyze the liquid obtained after digestion. The mobile phase A was water containing 0.1% TFA, and the mobile phase B was 100% ACN containing 0.1% TFA. The flow rate was set to 1 mL/min, the detection wavelength was 214 nm, and the column temperature was 30 °C.

[2] = Cell viability, CCK-8; assay type: cell-based, Human; conditions: human, EA.hy926 cells
Description: (§1) Human umbilical vein endothelial cells (EA.hy926) were grown in DMEM with 10% FBS and 1% penicillin-streptomycin at 37 °C in a humidified environment of 5% CO2.
(§2) Using a cell counting kit-8 (CCK-8) kit, the cytotoxicity of the peptide VNDYLNW in EA.hy926 was assessed. In 96-well cell culture plates, cells were inoculated at a density of 5 × 10^3/well. After 24 h of pre-incubation at 37 ℃ and 5% CO2, 50 µL of peptides with different concentrations were added to achieve the final concentrations of solution of 100, 200, 400, 600, 800, and 1000 µg/mL (using complete medium as the control) for 24 h. Following treatment, the culture medium was removed, 100 µL of medium (without FBS) was added, and 10 µL of CCK-8 was then added to each well. The culture was incubated for 1 h at 37 ℃ and 5% CO2. Finally, the light absorption value at 450 nm was detected by the microplate reader. Relative cell viability was calculated according to Equation (3):(3) Cell viability%=(A − A0)/A1 − A0 × 100 where A1 is the absorbance of cells that are not treated with peptides, A is the absorbance of cells that are treated with peptides, and A0 is the absorbance of the group without cells in the medium.

[3] = tested on: EA.hy926 cells; experiment: Cell viability, CCK-8; assay type: cell-based, Human; conditions: 0–400 μg/mL, 24 h
Description: as §1, §2

[4] = tested on: ACE; conditions: cited from earlier work; for IC50: read-out: IC50 of ACE inhibition
Source text: The ACE inhibitory activity of the remaining peptides was low, and the inhibition rate was below 20%. Here, we measured the I ... || Based on the Lineweaver–Burk plot analysis, the inhibitory mechanism of VW-7 on ACE was investigated. According to Table 3, the Vmax value decreased and the Km value increased as the peptide concentration increased. […] When the peptide binds to ...

[5] = tested on: cells; conditions: treatment with 25–100 µg/mL; cited from earlier work
Source text: NO is a messenger molecular medium that provides multiple functions in biological tissues. Previous studies have shown that the production of NO is one of the potential mechanisms for the prevention and treatment of hypertension. Inhibiting ACE can prevent vasodilator breakdown and directly stimulate endothelial cells to produce NO [16]. We cultured EA.hy926 cells in the medium and evaluated the intracellular NO in order to see how VW-7 affected the generation of NO in these cells.

Compound: CC(C)C[C@H](NC(=O)[C@H](Cc1ccc(O)cc1)NC(=O)[C@H](CC(=O)O)NC(=O)[C@H](CC(N)=O)NC(=O)[C@@H](N)C(C)C)C(=O)N[C@@H](CC(N)=O)C(=O)N[C@@H](Cc1c[nH]c2ccccc12)C(=O)O [VNDYLNW] (H-VNDYLNW-OH)
- ACE inhibitory action after gastrointestinal digestion ([1]; 0.4 mg/mL in ultrapure water, pH 2.0 pepsin 2% w/w 2 h 37 °C, then pH 7.0 trypsin 2% w/w 2 h 37 °C, read-out ACE inhibition rate, p > 0.05): remained essentially unaltered
- RP-HPLC peak area after two-step digestion ([1]; 0.4 mg/mL, pepsin pH 2.0 2 h then trypsin pH 7.0 2 h, 37 °C, RP-HPLC, UV 214 nm): did not change
- viability at 24 h, 600 µg/mL ([2]; 600 µg/mL, mean ± SD): 92.4 ± 2.4%
- viability at 24 h ([2]; concentration above 600 µg/mL (up to 1000 µg/mL)): < 80%
- toxic effect on EA.hy926 cells [3]: no toxic effect
- toxic effect on EA.hy926 cells ([3]; listed as VW-7): no cytotoxicity

Compound: EVSQGRP
- type of ACE inhibition ([4]; peptides from sea cucumber): mixed-type inhibition

Compound: NMAINPSKENLCSTFCK
- type of ACE inhibition ([4]; peptide from casein): mixed-type inhibition

Compound: SAAVGSP
- type of ACE inhibition ([4]; peptides from sea cucumber): mixed-type inhibition

Compound: VASVI [reported antihypertensive peptide from Olive Flounder Surimi]
- production of NO in cells [5]: significantly increased

Compound: VDMF
- IC50 ([4]; peptide extracted from Coix prolamin): 382 µM

Compound: VSRHFASYAN
- type of ACE inhibition ([4]; peptides from sea cucumber): mixed-type inhibition

Compound: VTPVGVPKW
- IC50 ([4]; peptide extracted from Black Cumin seeds): 1.8 µM
